Assay results: the kinase profiling compilation of Christmann-Franck et al. (2016)
Several values for one entry are separate records, joined by “and”; a condition that tells them apart may be missing. Identical values can stand only once. Blank lines part the entries; values can stand above or below the compound they belong to.

Legend:
Test in all cases: Caliper, Mobility shift assay off-chip
TSSK3 (human) = TSSK3 (human) (UniProt Q96PN8)
BRSK1 (human) = BRSK1 (human) (UniProt Q8TDC3)
MET (human) = MET (human) (UniProt P08581)
GSG2 (human) = GSG2 (human) (UniProt Q8TF76)
IRAK4 (human) = IRAK4 (human) (UniProt Q9NWZ3)
JAK1 JH1 JH2 (human) = JAK1 JH1 JH2 (human) (UniProt P23458)
AKT2 (human) = AKT2 (human) (UniProt P31751)
WNK1 (human) = WNK1 (human) (UniProt Q9H4A3)
RET (human) = RET (human) (UniProt P07949)
SYK (human) = SYK (human) (UniProt P43405)
PRKD3 (human) = PRKD3 (human) (UniProt O94806)
HCK (human) = HCK (human) (UniProt P08631)
LTK (human) = LTK (human) (UniProt P29376)
MARK1 (human) = MARK1 (human) (UniProt Q9P0L2)
PAK3 (human) = PAK3 (human) (UniProt O75914)
INSR (human) = INSR (human) (UniProt P06213)
IGF1R (human) = IGF1R (human) (UniProt P08069)
MERTK (human) = MERTK (human) (UniProt Q12866)
ABL2 (human) = ABL2 (human) (UniProt P42684)
PRKX (human) = PRKX (human) (UniProt P51817)
PRKCQ (human) = PRKCQ (human) (UniProt Q04759)
CDK2 (human) = CDK2 (human) (UniProt P24941)
MST1R (human) = MST1R (human) (UniProt Q04912)
EPHA2 (human) = EPHA2 (human) (UniProt P29317)
SGK3 (human) = SGK3 (human) (UniProt Q96BR1)
SPHK2 (human) = SPHK2 (human) (UniProt Q9NRA0)
BMX (human) = BMX (human) (UniProt P51813)
FYN (human) = FYN (human) (UniProt P06241)
GSK3B (human) = GSK3B (human) (UniProt P49841)
CSNK2A1 (human) = CSNK2A1 (human) (UniProt P68400)
BRSK2 (human) = BRSK2 (human) (UniProt Q8IWQ3)
ITK (human) = ITK (human) (UniProt Q08881)
FLT3 (human) = FLT3 (human) (UniProt P36888)

Chain of CSNK2A1 (human) (P68400 whole entry, looked up): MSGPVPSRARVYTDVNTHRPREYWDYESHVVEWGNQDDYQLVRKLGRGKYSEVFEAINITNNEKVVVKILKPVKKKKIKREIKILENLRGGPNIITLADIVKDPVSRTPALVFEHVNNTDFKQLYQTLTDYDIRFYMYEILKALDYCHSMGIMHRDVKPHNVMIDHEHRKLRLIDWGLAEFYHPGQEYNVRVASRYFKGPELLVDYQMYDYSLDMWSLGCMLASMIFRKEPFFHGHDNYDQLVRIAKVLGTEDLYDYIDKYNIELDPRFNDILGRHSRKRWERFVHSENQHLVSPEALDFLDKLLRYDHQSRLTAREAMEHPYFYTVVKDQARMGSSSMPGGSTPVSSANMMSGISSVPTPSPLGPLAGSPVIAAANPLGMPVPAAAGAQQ
Chain of BRSK1 (human) (Q8TDC3 whole entry, looked up): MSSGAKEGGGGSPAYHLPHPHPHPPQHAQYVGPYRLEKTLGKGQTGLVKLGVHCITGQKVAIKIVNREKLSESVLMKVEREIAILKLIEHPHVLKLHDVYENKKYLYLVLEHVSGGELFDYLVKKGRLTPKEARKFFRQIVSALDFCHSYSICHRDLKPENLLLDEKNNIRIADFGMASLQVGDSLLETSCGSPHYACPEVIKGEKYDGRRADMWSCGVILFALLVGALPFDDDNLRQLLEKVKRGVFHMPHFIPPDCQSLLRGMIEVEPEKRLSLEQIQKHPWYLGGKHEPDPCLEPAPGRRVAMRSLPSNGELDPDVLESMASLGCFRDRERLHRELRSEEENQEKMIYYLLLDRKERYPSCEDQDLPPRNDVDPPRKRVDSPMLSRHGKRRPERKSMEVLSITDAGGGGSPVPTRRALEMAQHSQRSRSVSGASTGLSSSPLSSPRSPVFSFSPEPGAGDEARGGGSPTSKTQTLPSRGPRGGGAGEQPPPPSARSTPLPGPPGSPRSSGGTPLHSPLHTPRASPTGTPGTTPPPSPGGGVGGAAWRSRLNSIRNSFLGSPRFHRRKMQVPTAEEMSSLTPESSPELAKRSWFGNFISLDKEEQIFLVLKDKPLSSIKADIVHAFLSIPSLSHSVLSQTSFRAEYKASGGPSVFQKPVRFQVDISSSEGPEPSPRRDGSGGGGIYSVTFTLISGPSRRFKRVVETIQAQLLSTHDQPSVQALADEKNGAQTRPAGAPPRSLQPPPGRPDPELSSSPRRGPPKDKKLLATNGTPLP
Chain of EPHA2 (human) (P29317 whole entry, looked up): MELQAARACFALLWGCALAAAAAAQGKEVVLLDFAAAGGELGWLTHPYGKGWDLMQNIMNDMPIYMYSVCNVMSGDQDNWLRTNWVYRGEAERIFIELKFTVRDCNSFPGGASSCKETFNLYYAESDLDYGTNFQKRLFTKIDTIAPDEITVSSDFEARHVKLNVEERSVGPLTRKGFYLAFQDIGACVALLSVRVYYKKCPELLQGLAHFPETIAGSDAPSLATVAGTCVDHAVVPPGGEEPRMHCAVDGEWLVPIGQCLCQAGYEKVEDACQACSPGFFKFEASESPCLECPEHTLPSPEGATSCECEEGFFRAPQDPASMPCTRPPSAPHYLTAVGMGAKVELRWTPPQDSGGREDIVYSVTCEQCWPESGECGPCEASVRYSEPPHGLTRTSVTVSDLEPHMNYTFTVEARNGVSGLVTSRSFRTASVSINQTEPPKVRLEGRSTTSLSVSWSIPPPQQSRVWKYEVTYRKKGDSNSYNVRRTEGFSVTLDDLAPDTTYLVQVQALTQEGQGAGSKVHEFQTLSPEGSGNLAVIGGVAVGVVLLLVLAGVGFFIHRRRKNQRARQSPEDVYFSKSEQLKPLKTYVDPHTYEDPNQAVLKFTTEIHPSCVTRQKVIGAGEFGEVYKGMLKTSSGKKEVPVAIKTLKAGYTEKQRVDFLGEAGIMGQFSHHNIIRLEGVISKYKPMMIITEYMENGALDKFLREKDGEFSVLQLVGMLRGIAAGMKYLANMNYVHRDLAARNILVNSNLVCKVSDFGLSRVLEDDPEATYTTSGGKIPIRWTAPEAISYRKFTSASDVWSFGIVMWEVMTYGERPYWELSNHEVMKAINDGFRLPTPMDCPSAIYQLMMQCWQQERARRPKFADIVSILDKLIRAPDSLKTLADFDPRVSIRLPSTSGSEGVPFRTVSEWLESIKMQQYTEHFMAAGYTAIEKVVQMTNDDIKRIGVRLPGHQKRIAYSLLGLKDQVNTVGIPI
Chain of MST1R (human) (Q04912 whole entry, looked up): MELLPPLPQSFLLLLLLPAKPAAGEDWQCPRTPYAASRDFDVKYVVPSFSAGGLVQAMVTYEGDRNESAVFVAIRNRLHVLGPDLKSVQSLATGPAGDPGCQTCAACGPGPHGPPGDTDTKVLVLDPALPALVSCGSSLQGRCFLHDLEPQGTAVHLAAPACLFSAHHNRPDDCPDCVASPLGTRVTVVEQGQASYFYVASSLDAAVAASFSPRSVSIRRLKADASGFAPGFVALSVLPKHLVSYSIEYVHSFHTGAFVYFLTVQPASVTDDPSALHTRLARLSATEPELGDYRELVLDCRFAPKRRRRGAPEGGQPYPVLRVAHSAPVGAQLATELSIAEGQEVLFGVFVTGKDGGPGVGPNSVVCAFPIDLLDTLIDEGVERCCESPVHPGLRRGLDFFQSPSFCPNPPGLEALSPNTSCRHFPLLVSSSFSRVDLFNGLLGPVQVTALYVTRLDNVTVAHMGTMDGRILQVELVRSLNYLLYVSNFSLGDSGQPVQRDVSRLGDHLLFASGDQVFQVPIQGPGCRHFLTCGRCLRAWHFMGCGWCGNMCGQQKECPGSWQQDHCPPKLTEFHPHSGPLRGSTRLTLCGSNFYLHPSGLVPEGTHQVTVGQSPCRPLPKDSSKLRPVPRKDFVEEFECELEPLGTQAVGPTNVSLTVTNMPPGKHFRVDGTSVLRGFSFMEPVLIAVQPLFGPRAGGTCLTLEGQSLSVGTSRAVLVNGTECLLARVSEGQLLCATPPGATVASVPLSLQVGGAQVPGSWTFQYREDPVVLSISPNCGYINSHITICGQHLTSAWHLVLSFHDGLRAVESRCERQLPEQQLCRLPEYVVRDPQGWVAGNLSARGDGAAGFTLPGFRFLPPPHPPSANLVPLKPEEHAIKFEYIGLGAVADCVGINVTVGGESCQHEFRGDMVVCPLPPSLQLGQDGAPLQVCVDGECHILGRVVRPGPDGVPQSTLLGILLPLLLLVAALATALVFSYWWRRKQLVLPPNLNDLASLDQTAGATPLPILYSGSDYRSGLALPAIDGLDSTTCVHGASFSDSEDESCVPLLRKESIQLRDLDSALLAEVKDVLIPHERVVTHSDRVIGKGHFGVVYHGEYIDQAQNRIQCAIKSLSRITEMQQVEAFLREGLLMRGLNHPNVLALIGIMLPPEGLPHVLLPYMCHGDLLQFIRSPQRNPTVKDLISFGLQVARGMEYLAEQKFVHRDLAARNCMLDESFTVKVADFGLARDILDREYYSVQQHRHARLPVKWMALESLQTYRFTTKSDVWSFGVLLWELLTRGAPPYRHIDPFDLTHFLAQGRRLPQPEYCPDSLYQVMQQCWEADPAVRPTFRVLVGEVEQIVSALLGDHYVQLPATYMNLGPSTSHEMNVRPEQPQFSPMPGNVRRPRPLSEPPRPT
Chain of HCK (human) (P08631 whole entry, looked up): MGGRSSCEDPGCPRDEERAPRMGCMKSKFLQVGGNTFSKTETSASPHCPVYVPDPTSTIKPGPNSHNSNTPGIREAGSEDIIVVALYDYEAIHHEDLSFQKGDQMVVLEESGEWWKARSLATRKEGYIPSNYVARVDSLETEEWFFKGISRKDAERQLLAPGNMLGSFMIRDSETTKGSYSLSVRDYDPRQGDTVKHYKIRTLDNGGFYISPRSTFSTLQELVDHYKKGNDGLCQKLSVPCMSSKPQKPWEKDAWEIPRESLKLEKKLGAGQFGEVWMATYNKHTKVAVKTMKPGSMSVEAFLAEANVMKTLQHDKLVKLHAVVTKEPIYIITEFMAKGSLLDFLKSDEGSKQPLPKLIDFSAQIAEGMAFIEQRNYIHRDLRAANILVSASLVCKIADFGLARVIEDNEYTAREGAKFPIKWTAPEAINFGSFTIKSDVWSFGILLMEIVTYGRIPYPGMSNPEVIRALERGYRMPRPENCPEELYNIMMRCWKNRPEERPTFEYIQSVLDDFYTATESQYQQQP
Chain of SPHK2 (human) (Q9NRA0 whole entry, looked up): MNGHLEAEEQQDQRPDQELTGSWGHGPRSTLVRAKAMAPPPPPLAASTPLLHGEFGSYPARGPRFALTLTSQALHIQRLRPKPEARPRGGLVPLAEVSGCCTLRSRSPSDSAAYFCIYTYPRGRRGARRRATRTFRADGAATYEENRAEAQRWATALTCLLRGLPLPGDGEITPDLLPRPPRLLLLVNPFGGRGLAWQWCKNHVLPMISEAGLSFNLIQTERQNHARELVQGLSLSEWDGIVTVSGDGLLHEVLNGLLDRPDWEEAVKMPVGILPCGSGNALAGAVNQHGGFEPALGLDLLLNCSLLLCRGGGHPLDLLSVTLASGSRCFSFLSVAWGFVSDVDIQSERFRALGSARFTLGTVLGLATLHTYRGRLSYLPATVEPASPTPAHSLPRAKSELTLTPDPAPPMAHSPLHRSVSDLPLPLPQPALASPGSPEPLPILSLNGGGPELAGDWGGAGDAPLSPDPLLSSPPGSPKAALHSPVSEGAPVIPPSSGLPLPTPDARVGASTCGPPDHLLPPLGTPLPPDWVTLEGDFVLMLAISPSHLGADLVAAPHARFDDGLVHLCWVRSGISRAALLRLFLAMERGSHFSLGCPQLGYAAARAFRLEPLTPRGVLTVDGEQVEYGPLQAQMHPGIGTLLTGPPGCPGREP
Chain of TSSK3 (human) (Q96PN8 whole entry, looked up): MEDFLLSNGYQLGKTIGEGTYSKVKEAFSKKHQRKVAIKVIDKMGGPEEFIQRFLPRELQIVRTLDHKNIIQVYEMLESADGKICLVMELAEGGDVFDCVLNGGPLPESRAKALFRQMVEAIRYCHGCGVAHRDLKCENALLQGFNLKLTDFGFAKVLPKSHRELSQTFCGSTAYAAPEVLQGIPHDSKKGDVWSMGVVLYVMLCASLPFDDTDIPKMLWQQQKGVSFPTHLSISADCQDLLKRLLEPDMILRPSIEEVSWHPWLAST

- inhibition (TSSK3 (human); compound 0.02 µM): 2.7%
- inhibition (TSSK3 (human); compound 0.2 µM): 8.3%
- inhibition (BRSK1 (human); compound 0.02 µM): -2.6%
- inhibition (BRSK1 (human); compound 0.2 µM): -6%
- inhibition (MET (human); compound 0.02 µM): -12.2%
- inhibition (MET (human); compound 0.2 µM): 4.4%
- inhibition (GSG2 (human); compound 0.02 µM): -3%
- inhibition (GSG2 (human); compound 0.2 µM): -1.8%
- inhibition (IRAK4 (human); compound 0.02 µM): -5.9%
- inhibition (IRAK4 (human); compound 0.2 µM): -4.6%
- inhibition (JAK1 JH1 JH2 (human); compound 0.02 µM): -1.7%
- inhibition (JAK1 JH1 JH2 (human); compound 0.2 µM): 3.1%
- inhibition (AKT2 (human); compound 0.02 µM): -9%
- inhibition (AKT2 (human); compound 0.2 µM): -8.2%
- inhibition (WNK1 (human); compound 0.02 µM): -4.5%
- inhibition (WNK1 (human); compound 0.2 µM): 6.3%
- inhibition (RET (human); compound 0.02 µM): 79.4%
- inhibition (RET (human); compound 0.2 µM): 101%
- inhibition (SYK (human); compound 0.02 µM): -7.3%
- inhibition (SYK (human); compound 0.2 µM): -11.1%
- inhibition (PRKD3 (human); compound 0.02 µM): -0.7%
- inhibition (PRKD3 (human); compound 0.2 µM): -5.1%
- inhibition (HCK (human); compound 0.02 µM): -11.6%
- inhibition (HCK (human); compound 0.2 µM): 5.2%
- inhibition (LTK (human); compound 0.02 µM): -2.2%
- inhibition (LTK (human); compound 0.2 µM): 7.4%
- inhibition (MARK1 (human); compound 0.02 µM): -0.8%
- inhibition (MARK1 (human); compound 0.2 µM): 0.9%
- inhibition (PAK3 (human); compound 0.02 µM): -1.4%
- inhibition (PAK3 (human); compound 0.2 µM): 2.1%
- inhibition (INSR (human); compound 0.02 µM): -8.9%
- inhibition (INSR (human); compound 0.2 µM): 2.1%
- inhibition (IGF1R (human); compound 0.02 µM): -1.8%
- inhibition (IGF1R (human); compound 0.2 µM): 5%
- inhibition (MERTK (human); compound 0.02 µM): -3.5%
- inhibition (MERTK (human); compound 0.2 µM): 10.2%
- inhibition (ABL2 (human); compound 0.02 µM): -2.8%
- inhibition (ABL2 (human); compound 0.2 µM): 3.1%
- inhibition (PRKX (human); compound 0.02 µM): -7%
- inhibition (PRKX (human); compound 0.2 µM): 0.2%
- inhibition (PRKCQ (human); compound 0.02 µM): 1.3%
- inhibition (PRKCQ (human); compound 0.2 µM): 14.1%
- inhibition (CDK2 (human); compound 0.02 µM): -3.5% and -3.6%
- inhibition (CDK2 (human); compound 0.2 µM): -1.3% and -2.4%
- inhibition (MST1R (human); compound 0.02 µM): -4.7%
- inhibition (MST1R (human); compound 0.2 µM): 5.3%
- inhibition (EPHA2 (human); compound 0.02 µM): -2.7%
- inhibition (EPHA2 (human); compound 0.2 µM): 9.8%
- inhibition (SGK3 (human); compound 0.02 µM): 0.8%
- inhibition (SGK3 (human); compound 0.2 µM): 10.7%
- inhibition (SPHK2 (human); compound 0.02 µM): -6%
- inhibition (SPHK2 (human); compound 0.2 µM): 7.1%
- inhibition (BMX (human); compound 0.02 µM): 0.1%
- inhibition (BMX (human); compound 0.2 µM): 10.4%
- inhibition (FYN (human); compound 0.02 µM): -2.5%
- inhibition (FYN (human); compound 0.2 µM): 14.5%
- inhibition (GSK3B (human); compound 0.02 µM): -6.7%
- inhibition (GSK3B (human); compound 0.2 µM): 2.9%
- inhibition (CSNK2A1 (human); compound 0.02 µM): -2%
- inhibition (CSNK2A1 (human); compound 0.2 µM): 0.3%
- inhibition (BRSK2 (human); compound 0.02 µM): -1.1%
- inhibition (BRSK2 (human); compound 0.2 µM): -1.3%
- inhibition (ITK (human); compound 0.02 µM): -2.9%
- inhibition (ITK (human); compound 0.2 µM): 7.5%
SMILES: CNC(=O)c1cc(Oc2ccc(NC(=O)Nc3ccc(Cl)c(C(F)(F)F)c3)cc2)ccn1

- inhibition (TSSK3 (human); compound 0.2 µM): 2.6%
- inhibition (TSSK3 (human); compound 4.0 µM): -1.3%
- inhibition (BRSK1 (human); compound 0.2 µM): 40%
- inhibition (BRSK1 (human); compound 4.0 µM): 86.6%
- inhibition (MET (human); compound 0.2 µM): 9%
- inhibition (MET (human); compound 4.0 µM): 65.3%
- inhibition (GSG2 (human); compound 0.2 µM): 39.2%
- inhibition (GSG2 (human); compound 4.0 µM): 89.7%
- inhibition (IRAK4 (human); compound 0.2 µM): 35.6%
- inhibition (IRAK4 (human); compound 4.0 µM): 90.4%
- inhibition (JAK1 JH1 JH2 (human); compound 0.2 µM): 10.9%
- inhibition (JAK1 JH1 JH2 (human); compound 4.0 µM): 70.4%
- inhibition (WNK1 (human); compound 0.2 µM): 3.2%
- inhibition (WNK1 (human); compound 4.0 µM): 4.9%
- inhibition (RET (human); compound 0.2 µM): 99.2%
- inhibition (RET (human); compound 4.0 µM): 103%
- inhibition (PRKD3 (human); compound 0.2 µM): 63.7%
- inhibition (PRKD3 (human); compound 4.0 µM): 97.5%
- inhibition (FLT3 (human); compound 0.2 µM): 100%
- inhibition (FLT3 (human); compound 4.0 µM): 102%
- inhibition (HCK (human); compound 0.2 µM): 38%
- inhibition (HCK (human); compound 4.0 µM): 94.6%
- inhibition (LTK (human); compound 0.2 µM): 69%
- inhibition (MARK1 (human); compound 0.2 µM): 68.8%
- inhibition (MARK1 (human); compound 4.0 µM): 96.8%
- inhibition (IGF1R (human); compound 0.2 µM): 40.1%
- inhibition (IGF1R (human); compound 4.0 µM): 93%
- inhibition (MERTK (human); compound 0.2 µM): 96%
- inhibition (MERTK (human); compound 4.0 µM): 104%
- inhibition (ABL2 (human); compound 0.2 µM): 13.7%
- inhibition (ABL2 (human); compound 4.0 µM): 66.6%
- inhibition (PRKX (human); compound 0.2 µM): 7.7%
- inhibition (PRKX (human); compound 4.0 µM): 66.3%
- inhibition (PRKCQ (human); compound 0.2 µM): 1.3%
- inhibition (PRKCQ (human); compound 4.0 µM): 31.2%
- inhibition (MST1R (human); compound 0.2 µM): 6.4%
- inhibition (MST1R (human); compound 4.0 µM): 48.8%
- inhibition (EPHA2 (human); compound 0.2 µM): -1.9%
- inhibition (EPHA2 (human); compound 4.0 µM): 24.9%
- inhibition (SGK3 (human); compound 4.0 µM): 20.6%
- inhibition (SPHK2 (human); compound 0.2 µM): -6.9%
- inhibition (SPHK2 (human); compound 4.0 µM): 4.7%
- inhibition (BMX (human); compound 0.2 µM): -0.5%
- inhibition (BMX (human); compound 4.0 µM): 22.4%
- inhibition (FYN (human); compound 0.2 µM): 45.3%
- inhibition (FYN (human); compound 4.0 µM): 93.3%
- inhibition (GSK3B (human); compound 0.2 µM): 1.1%
- inhibition (GSK3B (human); compound 4.0 µM): 23.7%
- inhibition (CSNK2A1 (human); compound 0.2 µM): -0.4%
- inhibition (CSNK2A1 (human); compound 4.0 µM): 19.9%
- inhibition (BRSK2 (human); compound 0.2 µM): 36.7%
- inhibition (BRSK2 (human); compound 4.0 µM): 85.9%
- inhibition (ITK (human); compound 0.2 µM): 93.3%
- inhibition (ITK (human); compound 4.0 µM): 101%
SMILES: CCN(CC)CCNC(=O)c1c(C)[nH]c(/C=C2\C(=O)Nc3ccc(F)cc32)c1C
